Literature values, collected in patent US7115281B2, “Processes for the preparation of oral dosage formulations of modafinil” (Ranbaxy Laboratories Limited, priority 2002, dated 2006).

Columns and labels:
[1] = not given; remark: listed apart in the source

Structure (SMILES): NC(=O)C[S+]([O-])C(c1ccccc1)c1ccccc1 (centres unmarked) [modafinil]
- Solubility in water: less than 1 mg/ml
- Stability at higher temperatures [1]: unstable
